The text below walks through data of PMC8128909, “Characterization of a new bifunctional endo-1,4-β-xylanase/esterase found in the rumen metagenome” (Scientific Reports, 2021).

This test relates to T1, XylR.
T1 construct: without predicted 21-residue signal peptide; His6 (C-terminal as printed), pET28a(+), E. coli BL21(DE3); 75 kDa on SDS-PAGE; motifs 159WDVVNEA163, 280TELD283, 624GLSMG628
The test can be described thus: spectrophotometric p-nitrophenol release at […] nm, Michaelis-Menten fit. The format is biochemical, uncultured bacterium (Nelore cattle rumen metagenome). The following applies: 0.1 M sodium acetate pH 6.5, 37 °C; substrate 0.75 to 5 mM; esterase activity.

The Km is the concentration of substrate that gives half-maximal velocity. As for `CC(=O)Oc1ccc([N+](=O)[O-])cc1` [C2, p-nitrofenyl acetate], the Km was 2300 ± 400 µM.
